# Assay results reported in patent US8349553B2, “Jasmonate based assays for identifying compounds that selectively inhibit mitochondrial bound hexokinases” (Ramot at Tel Aviv University Ltd., priority 2007, dated 2013).
# Columns and labels:
# [1] = test system: mitochondria-bound hexokinase (mitochondrial fraction from a CT-26 tumor); experiment: Hexokinase detachment assay, mitochondrial fraction of CT-26 tumor; type: biochemical, murine; conditions: CT-26 tumor mitochondrial fraction
# Experimental: Mitochondrial fraction was prepared by mechanical lysis and differential centrifugation. All stages were performed on ice. Cells or extracted tissues were washed with PBS and disrupted by homogenization in extraction buffer (Sucrose 250 mM, HEPES-NaOH 10 mM, pH 7.2) freshly supplemented with 0.1 mM EDTA and Protease Inhibitors cocktail (Sigma). For each gram of cells or tissue, 4 volumes of extraction buffer were applied. The homogenate volume was doubled with the extraction buffer, and tissue and cell debris as well as nuclei were pelleted by centrifugation of 1,000 g for 10 minutes. The supernatant was further spun at 13,000 g for 10 minutes twice. Endoplasmic reticulum layer was removed. The pellet, designated as the mitochondrial fraction, was suspended in the appropriate buffer, depending on the assay for which the mitochondrial fraction was prepared. Mitochondrial fractions were used immediately or stored at −196° C.
# To determine the amount of hexokinase detached from the mitochondrial fraction by different agents, mitochondria were incubated with the agent of interest and pelleted by centrifugation. Activity of hexokinase in the supernatant (i.e., activity of the detached hexokinase) was determined spectrophotometrically at 340 nm. The reaction couples the ADP formation by hexokinase, consuming the ADP for pyruvate formation by pyruvate kinase, and reducing the pyruvate with NADH by lactate dehydrogenase. Briefly, mitochondria were suspended in incubation buffer (HEPES pH 7.4 20 mM, Sucrose 0.25M, Glucose 10 mM, KCl5 mM, MgCl2 10 mM; 0.2 mg/test, 100 μL/test) and incubated as described below. […]
# Methyl jasmonate perturbs mitochondria directly in a PTPC-dependent manner (Rotem, 2005). In order to determine whether methyl jasmonate is able to detach hexokinase from mitochondrial fraction isolated from CT-26 tumors, the activity of hexokinase in the supernatant of mitochondrial fraction treated for different time periods was measured. […] The activity of unbound hexokinase was measured and compared to the activity of spontaneously detached hexokinase (control).
# B16 melanoma = experiment: Cellular ATP levels (CellTiter-Glo), B16; type: cell-based, murine; conditions: 60 minutes of exposure, various concentrations
# Experimental: The CellTiter-Glo™ Luminescent Cell Viability Assay (Promega, Madison, Wis., U.S.A.) was employed (Fingrut, 2005). Upon completion of a given experiment, plates were equilibrated to room temperature. CellTiter-Glo™ reagent containing luciferin and luciferase was added to each well and the plates were mixed on an orbital shaker for 2 minutes to induce cell lysis. In the presence of ATP, Mg^2+ and molecular oxygen, mono-oxidation of luciferin is catalyzed by luciferase, generating a luminescence signal. Cells were then incubated for 10 minutes at room temperature to stabilize the luminescence signal. Luminescence was recorded using Kodak digital science—Image station 440 CD. Luminescence is directly proportional to ATP concentration. ATP depletion (% of control) was calculated in the following way: {(luminescence of control cells−luminescence of drug-treated cells)/luminescence of control cells}×100. In order to test the correlation between cellular ATP levels and the release of hexokinase from mitochondrial fraction different cancer cells, namely Molt-4 cells, BCL-1 leukemic cells and B16 melanoma tumors were exposed to various methyl jasmonate concentrations. […] CT26 and Molt-4 cells were then seeded in 24 well plates. CT26 cells were allowed to adhere over night. Cells were exposed to methyl jasmonate (MJ; 3 mM) for 1 hour. Trypan blue exclusion test was performed and cells were counted.
# [2] = molecular target: T1, voltage-dependent anion channel (Rattus norvegicus, UniProt Q9Z2L0); experiment: Voltage-dependent anion channel recording in planar lipid bilayer (channel alone); type: biochemical; conditions: 3 mM; voltage stepped from 0 mV to −40 mV
# T1 construct: purified mitochondrial voltage-dependent anion channel reconstituted into a planar lipid bilayer; from tissue; host or cells: rat liver mitochondria
# Experimental: Currents were measured with respect to the trans side of the membrane (ground).
# [3] = test system: mitochondrial fraction of mouse brain; experiment: Mitochondrial swelling assay, mouse brain; type: biochemical; conditions: 1 mM
# Experimental: (§1) Freshly isolated mitochondrial fraction was washed with extraction buffer to remove EDTA and resuspended in swelling buffer (Mannitol 220 mM, Sucrose 70 mM, Tris, pH 7.2, 150 mM, KH2PO4, pH 7.2, 0.2 mM; 0.2 mg in 100 μL) freshly supplemented with potassium succinate, pH 7.2, 5 mM. Every component was sodium-free. Optical density was monitored at the wave length of 540 nm for 2-5 minutes before the addition of the examined reagents, e.g. methyl jasmonate, and for additional 20 minutes afterwards.
# (§2) In order to examine the consistency of the relationship between the ability of methyl jasmonate to detach bound hexokinase and mitochondrial damage, methyl jasmonate was tested in mouse brain in comparison to mouse liver. The comparison was performed due to known differences of mitochondrial hexokinase content between mouse brain vs. its liver. It is well established in the art that brain mitochondrial fraction is rich in bound hexokinase, while liver mitochondrial fraction is essentially devoid of it (Wilson, 1995). […] Mitochondrial fractions were incubated for either 10, 30 or 60 minutes at 37° C. The activity of unbound hexokinase was measured and compared to the activity of spontaneously (control) detached hexokinase. Consequently, the ability of methyl jasmonate to induce swelling in mitochondrial fraction isolated from mouse brain and liver was tested.
# [4] = test system: mitochondrial fraction of mouse liver; experiment: Mitochondrial swelling assay, mouse liver; type: biochemical; conditions: 1 mM
# Experimental: as §1, §2
# T1 sequence (Q9Z2L0 whole entry): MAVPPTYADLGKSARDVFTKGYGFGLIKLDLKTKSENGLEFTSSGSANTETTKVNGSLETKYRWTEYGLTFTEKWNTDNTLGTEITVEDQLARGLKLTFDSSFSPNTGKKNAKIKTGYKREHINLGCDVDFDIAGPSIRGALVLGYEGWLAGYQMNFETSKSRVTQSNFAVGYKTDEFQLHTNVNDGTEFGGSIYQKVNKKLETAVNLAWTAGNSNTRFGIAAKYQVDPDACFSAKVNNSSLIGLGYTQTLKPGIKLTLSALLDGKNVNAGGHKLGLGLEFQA
structure (smiles),measurement,setting,value
CC/C=C\CC1C(=O)CCC1CC(=O)OC (stereo not drawn) [methyl jasmonate],"detachment of hexokinase (activity of unbound hexokinase compared to spontaneously detached control), time course","[1]; 3 mM, 10, 30 or 60 minutes at 37° C.",detached hexokinase in a time-dependent manner
same,"detachment of hexokinase (activity of unbound hexokinase compared to control), dose dependence",[1]; 30 minutes of incubation,dose-dependent
same,cellular ATP level,B16 melanoma,significant and dose-dependent decrease of cellular ATP
same,current passing through voltage-dependent anion channel (no hexokinase),[2],showed no effect on the current passing through voltage-dependent anion channel
same,mitochondrial swelling (optical density at 540 nm),[3],led to swelling in brain
same,mitochondrial swelling (optical density at 540 nm),[4],not in liver
